Key:
Assay type in all cases: cell-based, human
MOLT-4 = assay: NCI60 one-dose screen, MOLT-4; conditions: MOLT-4 (Leukemia); NCI 60 one-dose, 10^-5 M
Method: (§1) Anti-cancer activity screening of all compounds was performed by the NCI Developmental Therapeutics Program (DTP) through their NCI60 screening initiative. Assay details can be found at the website dtp.cancer.gov/discovery_development/nci-60/methodology.htm. Information from this website is reproduced here for convenience.
(§2) As of early 2007 all compounds submitted to the NCI 60 Cell screen are tested initially at a single high dose (10^-5 M) in the full NCI 60 cell panel. Only compounds which satisfy pre-determined threshold inhibition criteria in a minimum number of cell lines will progress to the full 5-dose assay. The threshold inhibition criteria for progression to the 5-dose screen was selected to efficiently capture compounds with anti-proliferative activity based on careful analysis of historical DTP screening data. The threshold criteria may be updated as additional data becomes available.
(§3) The One-dose data will be reported as a mean graph of the percent growth of treated cells and will be similar in appearance to mean graphs from the 5-dose assay. […]
(§4) Following drug addition, the plates are incubated for an additional 48 h at 37° C., 5% CO2, 95% air, and 100% relative humidity. […] Bound stain is subsequently solubilized with 10 mM trizma base, and the absorbance is read on an automated plate reader at a wavelength of 515 nm. […]

HOP-92 = assay: NCI60 one-dose screen, HOP-92; conditions: HOP-92 (Non-Small Cell Lung Cancer); NCI 60 one-dose, 10^-5 M
Method: as §1, §2, §3, §4

NCI-H23 = assay: NCI60 one-dose screen, NCI-H23; conditions: NCI-H23 (Non-Small Cell Lung Cancer); NCI 60 one-dose, 10^-5 M
Method: as §1, §2, §3, §4

NCI-H322M = assay: NCI60 one-dose screen, NCI-H322M; conditions: NCI-H322M (Non-Small Cell Lung Cancer); NCI 60 one-dose, 10^-5 M
Method: as §1, §2, §3, §4

KM12 = assay: NCI60 one-dose screen, KM12; conditions: KM12 (Colon Cancer); NCI 60 one-dose, 10^-5 M
Method: as §1, §2, §3, §4

SF-268 = assay: NCI60 one-dose screen, SF-268; conditions: SF-268 (CNS Cancer); NCI 60 one-dose, 10^-5 M
Method: as §1, §2, §3, §4

SF-295 = assay: NCI60 one-dose screen, SF-295; conditions: SF-295 (CNS Cancer); NCI 60 one-dose, 10^-5 M
Method: as §1, §2, §3, §4

SNB-75 = assay: NCI60 one-dose screen, SNB-75; conditions: SNB-75 (CNS Cancer); NCI 60 one-dose, 10^-5 M
Method: as §1, §2, §3, §4

SK-MEL-2 = assay: NCI60 one-dose screen, SK-MEL-2; conditions: SK-MEL-2 (Melanoma); NCI 60 one-dose, 10^-5 M
Method: as §1, §2, §3, §4

OVCAR-4 = assay: NCI60 one-dose screen, OVCAR-4; conditions: OVCAR-4 (Ovarian Cancer); NCI 60 one-dose, 10^-5 M
Method: as §1, §2, §3, §4

OVCAR-5 = assay: NCI60 one-dose screen, OVCAR-5; conditions: OVCAR-5 (Ovarian Cancer); NCI 60 one-dose, 10^-5 M
Method: as §1, §2, §3, §4

SK-OV-3 = assay: NCI60 one-dose screen, SK-OV-3; conditions: SK-OV-3 (Ovarian Cancer); NCI 60 one-dose, 10^-5 M
Method: as §1, §2, §3, §4

CAKI-1 = assay: NCI60 one-dose screen, CAKI-1; conditions: CAKI-1 (Renal Cancer); NCI 60 one-dose, 10^-5 M
Method: as §1, §2, §3, §4

SN12C = assay: NCI60 one-dose screen, SN12C; conditions: SN12C (Renal Cancer); NCI 60 one-dose, 10^-5 M
Method: as §1, §2, §3, §4

DU-145 = assay: NCI60 one-dose screen, DU-145; conditions: DU-145 (Prostate Cancer); NCI 60 one-dose, 10^-5 M
Method: as §1, §2, §3, §4

MCF7 = assay: NCI60 one-dose screen, MCF7; conditions: MCF7 (Breast Cancer); NCI 60 one-dose, 10^-5 M
Method: as §1, §2, §3, §4

MDA-MB-231/ATCC = assay: NCI60 one-dose screen, MDA-MB-231; conditions: MDA-MB-231/ATCC (Breast Cancer); NCI 60 one-dose, 10^-5 M
Method: as §1, §2, §3, §4

HS 578T = assay: NCI60 one-dose screen, HS 578T; conditions: HS 578T (Breast Cancer); NCI 60 one-dose, 10^-5 M
Method: as §1, §2, §3, §4

Row | Structure (SMILES) | Growth Percent (MOLT-4) | Growth Percent (HOP-92) | Growth Percent (NCI-H23) | Growth Percent (NCI-H322M) | Growth Percent (KM12) | Growth Percent (SF-268) | Growth Percent (SF-295) | Growth Percent (SNB-75) | Growth Percent (SK-MEL-2) | Growth Percent (OVCAR-4) | Growth Percent (OVCAR-5) | Growth Percent (SK-OV-3) | Growth Percent (CAKI-1) | Growth Percent (SN12C) | Growth Percent (DU-145) | Growth Percent (MCF7) | Growth Percent (MDA-MB-231/ATCC) | Growth Percent (HS 578T)
1 | CC(=O)N1c2ccccc2NC2=C(C(=O)N(C)C2(C)C)C1c1ccccc1 (stereo not drawn) [NUCC-60872] | 33.27% | 37.54% | 50.21% | 73.36% | 19.79% | 42.99% | 45.97% | −3.29% | 8.92% | 55.16% | 62.50% | 55.42% | 71.91% | 40.74% | 78.98% | 16.41% | 63.32% | 20.42%
2 | CC(=O)N1c2ccccc2NC2=C(C(=O)N(Cc3ccccc3)C2(C)C)C1c1ccco1 (stereo not drawn) [NUCC-608455] | 28.58% | 21.07% | 20.85% | 44.61% | 14.83% | 42.68% | −0.75% | 16.83% | 16.91% | 48.83% | 25.92% | 22.71% | 42.97% | 35.91% | 7.82% | 15.26% | 9.25% | 10.67%

Source: patent publication US12252492B2, “Substituted fused pyrrolo-diazepinones and uses thereof” (Northwestern University, priority 2018, dated 2025)
